Test results: EP0207599A1, “Arachidonic acid analogues” (BEECHAM GROUP PLC, priority 1985, dated 1987)

Test system: Phospholipase A2 (Naja naja venom , Sigma)
Assay: Inhibition of phospholipase A2 activity (release of 14C-arachidonic acid from phosphatidylcholine substrate)
Format: biochemical
Settings: at 20µM; mean ± standard deviation of triplicate samples; 37°C, pH 8.7, CaCl2 4mM
Experimental: Method For The Measurement of Inhibition of Phospholipase A2 Activity
Enzyme: Phospholipase A2 (Naja naja venom , Sigma)
Substrate: Diarachidoyl phosphatidylcholine (10.6mg) and α-1-palmitayl-2-[1-^14C]-arachidonyl phosphatidylcholine (0.5pCi; 52.9nCi/mMol) in 28ml of TrisHCl buffer = […], pH 8.7) ultrasonicated.
Assay: Incubations containing PLA2 (0.125ng) in Tris HC1 buffer (100mM, pH 8.7) and CaCl2 (4mM) were prepared on ice. Immediately prior to incubation at 37°C 5µl of DMSO or compound in DMSO were added. The final assay volume was 1.75ml. After 10 minutes incubation at 37°C 750pl of substrate was added, with mixing, and the incubation continued for a further 15 min. The reaction is terminated by placing on ice and adding 5m1 CHCl3:MeOH (2:1v/v).
The lower organic phase is remaved ahd stored under N2 at -20°C until analysed. Analysis is by 1-dimensional t.l.c. on polygram Sil G sheets in the solvent system: petroleum ether: diethyl ether: acetic acid (60:40:1, v/v). In this solvent system the phospholipid remains at the origin and the arachidonic acid has an approximate Rf. value of 0.36. The areas of interest are cut from the plates and their radioactivity determined by liquid scintillation counting.
All compounds are tested in triplicate.
Calculation: The radioactivity of the arachidonic acid is expressed as a percentage of the total dpm cut from the plate. The percentage inhibition of arachidonic acid release compared to that of the control is calculated after correction for the level of spontaneous release where: • x = % corrected mean arachidonic acid release in control • y = % corrected arachidonic acid release after inhibition [formula]
The nean of the triplicate sanples is calculated giving z ± standard deviation %.

| Compound | Percent inhibition of phospholipase A2 at x µM concentration. [at 20µM %] |
| --- | --- |
| 6-(2-(1-Octynyl)pheny]-E-hex-5-en-1-oic acid [Example 2] | 76.2± 13.9 |
| CCCCCCC#Cc1ccccc1C#CCCC(C(=O)O)C(=O)OC(C)(C)C (centres unmarked) [Example 21, 2-(4-[2-(1-Octynyl)phenyl]-but-3-ynyl)malonic acid monotertbutyl ester] | 62.0± 4.4 |
| CCCCCCC#Cc1ccccc1C#CCCC(C(=O)O)C(=O)O [Example 13, 2-(4-[2-(1-octynyl)phenyl]-but-3-ynyl)malonic acid.] | 23.1± 17.6 |
| CCCCCCC#Cc1cccc(/C=C/CCCC(=O)O)c1 [Example 5, 6-[3-(1-Octynyl)phenyl]-E-hex-5-en-1-oic acid] | 78.9± 4.7 |
| CCCCCC/C=C\c1ccccc1/C=C\CCCC(=O)O [Example 25, 6-[2-((Z)-1-octenyl)phenyl]-(Z)-hex-5-en-1-oic acid] | 69.8± 8.3 |
| CCCCCC/C=C\c1ccccc1/C=C\CCC(C(=O)O)C(=O)O [Example 15, 2-(4-[2-(Z)-1-Octenyl)phenyl-(Z)-but-3-enyl)malonic acid] | 65.0± 17.0 |
| 6-[2-(1-Octynyl)phenyl)hex-5-yn-1-oic acid [Example 23] | 25.0± 19.0 |
| CCCCCC/C=C\c1ccccc1/C=C/CCCC(=O)O [Example 3, 6-[2-(Z-1-Octenyl)phenyl]-E-hex-5-en-1-oic acid] | 72.9± 10.3 |
